pKd: −log10 of the molar value.
molecular target: T1, JAK2 (JH1domain-catalytic, Y1007F,Y1008F) kinase (Homo sapiens, UniProt O60674, Y1007F/Y1008F); experiment: JAK2 JH1 Domain Binding Assay; details: qPCR readout
T1 construct: JAK2 (JH1domain-catalytic, Y1007F,Y1008F) kinase was expressed as N-terminal fusion; made in house; host or cells: transiently transfected HEK293 cells
T1 sequence (O60674 849-1124 Y1007F/Y1008F limits assumed): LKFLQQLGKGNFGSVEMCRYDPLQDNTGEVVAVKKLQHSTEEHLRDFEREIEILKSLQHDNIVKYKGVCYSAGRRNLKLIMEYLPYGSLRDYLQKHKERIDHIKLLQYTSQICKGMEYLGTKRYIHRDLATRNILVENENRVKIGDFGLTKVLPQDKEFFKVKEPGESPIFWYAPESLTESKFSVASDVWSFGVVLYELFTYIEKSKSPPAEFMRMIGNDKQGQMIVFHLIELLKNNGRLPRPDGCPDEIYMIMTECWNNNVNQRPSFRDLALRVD

Row | Compound | pKd
1 | Cn1c(Nc2cc(C(=O)NCCN3CCOCC3)cc(C(F)(F)F)c2)nc2ncc(Oc3cnn4ccccc34)c(Cl)c21 [Example I-145, 3-((7-chloro-1-methyl-6-(pyrazolo[1,5-a]pyridin-3-yloxy)-1H-imidazo[4,5-b]pyridin-2-yl)amino)-N-(2-morpholinoethyl)-5-(trifluoromethyl)benzamide] | 7.30 to 8.00
2 | CCN1CCN(Cc2ccc(Nc3nc4ncc(Oc5cnn6ccncc56)c(Cl)c4n3C)cc2C(F)(F)F)CC1 [Example I-146, 7-chloro-N-(4-((4-ethylpiperazin-1-yl)methyl)-3-(trifluoromethyl)phenyl)-1-methyl-6-(pyrazolo[1,5-a]pyrazin-3-yloxy)-1H-imidazo[4,5-b]pyridin-2-amine] | > 8.00
3 | Cn1c(Nc2ccc(CN3CCOCC3)c(C(F)(F)F)c2)nc2ncc(Oc3cnn4ccncc34)c(Cl)c21 [Example I-149, 7-chloro-1-methyl-N-(4-(morpholinomethyl)-3-(trifluoromethyl)phenyl)-6-(pyrazolo[1,5-a]pyrazin-3-yloxy)-1H-imidazo[4,5-b]pyridin-2-amine] | > 8.00
4 | Cn1c(Nc2cc(C3CC3)cn([C@H]3C[C@@H](O)C3)c2=O)nc2ncc(Oc3cnn4cc(F)ccc34)c(Cl)c21 [Example I-151, cis-3-((7-chloro-6-((6-fluoropyrazolo[1,5-a]pyridin-3-yl)oxy)-1-methyl-1H-imidazo[4,5-b]pyridin-2-yl)amino)-5-cyclopropyl-1-(3-hydroxycyclobutyl)pyridin-2(1H)-one] | > 8.00
5 | Cn1c(Nc2cc(C3CC3)cn([C@H]3C[C@H](O)C3)c2=O)nc2ncc(Oc3cnn4cc(F)ccc34)c(Cl)c21 [Example I-152, trans-3-((7-chloro-6-((6-fluoropyrazolo[1,5-a]pyridin-3-yl)oxy)-1-methyl-1H-imidazo[4,5-b]pyridin-2-yl)amino)-5-cyclopropyl-1-(3-hydroxycyclobutyl)pyridin-2(1H)-one] | > 8.00
6 | Cn1c(Nc2cc(C(C)(C)C)n([C@H]3C[C@H](O)C3)n2)nc2ncc(Oc3cnn4ccncc34)c(C#N)c21 [Example I-158, trans-2-((5-(tert-butyl)-1-(3-hydroxycyclobutyl)-1H-pyrazol-3-yl)amino)-1-methyl-6-(pyrazolo[1,5-a]pyrazin-3-yloxy)-1H-imidazo[4,5-b]pyridine-7-carbonitrile] | > 8.00
7 | CCn1c(C(C)(C)C)ncc(Nc2nc3ncc(Oc4cnn5ccncc45)c(Cl)c3n2C)c1=O [Example I-164, 2-(tert-butyl)-5-((7-chloro-1-methyl-6-(pyrazolo[1,5-a]pyrazin-3-yloxy)-1H-imidazo[4,5-b]pyridin-2-yl)amino)-3-ethylpyrimidin-4(3H)-one] | 7.30 to 8.00
8 | Cn1c(=O)c(Nc2nc3ncc(Oc4cnn5ccncc45)c(Cl)c3n2C)cn(C2CC2)c1=O [Example I-165, 5-((7-chloro-1-methyl-6-(pyrazolo[1,5-a]pyrazin-3-yloxy)-1H-imidazo[4,5-b]pyridin-2-yl)amino)-1-cyclopropyl-3-methylpyrimidine-2,4(1H,3H)-dione] | 5.30 to 6.00

Now from value to compound:

Row | pKd | Compound
9 | > 8.00 | COCCOc1ccc2c(Oc3cnc4nc(Nc5cc(C6CC6)nn(CCO)c5=O)n(C)c4c3Cl)cnn2c1 [Example I-153, 4-((7-chloro-6-((6-(2-methoxyethoxy)pyrazolo[1,5-a]pyridin-3-yl)oxy)-1-methyl-1H-imidazo[4,5-b]pyridin-2-yl)amino)-6-cyclopropyl-2-(2-hydroxyethyl)pyridazin-3(2H)-one]
10 | > 8.00 | CN1C(=O)c2cc(Nc3nc4ncc(Oc5cnn6ccncc56)c(Cl)c4n3C)cc(C(F)(F)F)c2C1(C)C [Example I-154, 6-((7-chloro-1-methyl-6-(pyrazolo[1,5-a]pyrazin-3-yloxy)-1H-imidazo[4,5-b]pyridin-2-yl)amino)-2,3,3-trimethyl-4-(trifluoromethyl)isoindolin-1-one]
11 | > 8.00 | COCCOc1ccc2c(Oc3cnc4nc(Nc5cc(C6CC6)cn(CCO)c5=O)n(C)c4c3Cl)cnn2c1 [Example I-155, 3-((7-chloro-6-((6-(2-methoxyethoxy)pyrazolo[1,5-a]pyridin-3-yl)oxy)-1-methyl-1H-imidazo[4,5-b]pyridin-2-yl)amino)-5-cyclopropyl-1-(2-hydroxyethyl)pyridin-2(1H)-one]
12 | > 8.00 | CC(=O)N1CC2(CC(n3nc(Nc4nc5ncc(Oc6cnn7ccncc67)c(Cl)c5n4C)cc3C(F)(F)F)C2)C1 [Example I-156, 1-(6-(3-((7-chloro-1-methyl-6-(pyrazolo[1,5-a]pyrazin-3-yloxy)-1H-imidazo[4,5-b]pyridin-2-yl)amino)-5-(trifluoromethyl)-1H-pyrazol-1-yl)-2-azaspiro[3.3]heptan-2-yl)ethan-1-one]
13 | > 8.00 | Cn1c(Nc2cc(C(F)(F)F)cn(-c3cccnc3)c2=O)nc2ncc(Oc3cnn4ccccc34)c(C#N)c21 [Example I-157, 1-methyl-2-((2-oxo-5-(trifluoromethyl)-2H-[1,3′-bipyridin]-3-yl)amino)-6-(pyrazolo[1,5-a]pyridin-3-yloxy)-1H-imidazo[4,5-b]pyridine-7-carbonitrile]
14 | > 8.00 | Cn1c(Nc2cc(C(F)(F)F)cn(CCCN3CCOCC3)c2=O)nc2ncc(Oc3cnn4ccccc34)c(C#N)c21 [Example I-159, 1-methyl-2-((1-(3-morpholinopropyl)-2-oxo-5-(trifluoromethyl)-1,2-dihydropyridin-3-yl)amino)-6-(pyrazolo[1,5-a]pyridin-3-yloxy)-1H-imidazo[4,5-b]pyridine-7-carbonitrile]
15 | > 8.00 | Cn1c(Nc2cc(C(F)(F)F)cn(CCO)c2=O)nc2ncc(Oc3cnn4ccccc34)c(C#N)c21 [Example I-160, 2-((1-(2-hydroxyethyl)-2-oxo-5-(trifluoromethyl)-1,2-dihydropyridin-3-yl)amino)-1-methyl-6-(pyrazolo[1,5-a]pyridin-3-yloxy)-1H-imidazo[4,5-b]pyridine-7-carbonitrile]
16 | > 8.00 | Cn1cc(-n2cc(C(F)(F)F)cc(Nc3nc4ncc(Oc5cnn6cc(F)ccc56)c(Cl)c4n3C)c2=O)cn1 [Example I-161, 3-((7-chloro-6-((6-fluoropyrazolo[1,5-a]pyridin-3-yl)oxy)-1-methyl-1H-imidazo[4,5-b]pyridin-2-yl)amino)-1-(1-methyl-1H-pyrazol-4-yl)-5-(trifluoromethyl)pyridin-2(1H)-one]
17 | > 8.00 | Cn1c(Nc2cc(C(F)(F)F)cn([C@H]3C[C@@H](O)C3)c2=O)nc2ncc(Oc3cnn4cc(F)ccc34)c(Cl)c21 [Example I-162, cis-3-((7-chloro-6-((6-fluoropyrazolo[1,5-a]pyridin-3-yl)oxy)-1-methyl-1H-imidazo[4,5-b]pyridin-2-yl)amino)-1-(3-hydroxycyclobutyl)-5-(trifluoromethyl)pyridin-2(1H)-one]
18 | > 8.00 | Cn1c(Nc2cc(C(F)(F)F)cn(CCO)c2=O)nc2ncc(Oc3cnn4cc(F)ccc34)c(Cl)c21 [Example I-163, 3-((7-chloro-6-((6-fluoropyrazolo[1,5-a]pyridin-3-yl)oxy)-1-methyl-1H-imidazo[4,5-b]pyridin-2-yl)amino)-1-(2-hydroxyethyl)-5-(trifluoromethyl)pyridin-2(1H)-one]
19 | > 8.00 | Cn1cc(C(F)(F)F)cc(Nc2nc3ncc(Oc4cnn5ccc(N6CCOCC6)cc45)c(Cl)c3n2C)c1=O [Example I-166, 3-((7-chloro-1-methyl-6-((5-morpholinopyrazolo[1,5-a]pyridin-3-yl)oxy)-1H-imidazo[4,5-b]pyridin-2-yl)amino)-1-methyl-5-(trifluoromethyl)pyridin-2(1H)-one]

— patent US12043632B2, “6-heteroaryloxy benzimidazoles and azabenzimidazoles as JAK2 inhibitors” (Ajax Therapeutics, Inc., priority 2020, dated 2024)
